Patent US20020026053A1, “Novel 3-(substituted) -2- indolinones compounds and use thereof as inhibitors of protein kinase activity” (priority 1997, published 2002)

Key:
FLK-1 receptor = experiment: FLK-1 Assay (cellular/catalytic ELISA, VEGF-stimulated phosphotyrosine); assay type: cell-based; parameters: concentration or dose not given beside the values
Procedure: (§1) The cellular/catalytic assays described herein are performed in an ELISA format. The general procedure is as follows: a compound is introduced to cells expressing the test kinase, either naturally or recombinantly, for a selected period of time after which, if the test kinase is a receptor, a ligand known to activate the receptor is added. The cells are lysed and the lysate is transferred to the wells of an ELISA plate previously coated with a specific antibody recognizing the substrate of the enzymatic phosphorylation reaction. Non-substrate components of the cell lysate are washed away and the amount of phosphorylation on the substrate is detected with an antibody specifically recognizing phosphotyrosine compared with control cells that were not contacted with a test compound.
An ELISA assay is conducted to measure the kinase activity of the FLK-1 receptor and more specifically, the inhibition or activation of TK activity on the FLK-1 receptor. Specifically, the following assay can be conducted to measure kinase activity of the FLK-1 receptor in cells genetically engineered to express Flk-1.
a. Corning 96-well ELISA plates (Corning Catalog No. 25805-96);
b. Cappel goat anti-rabbit IgG (catalog no. 55641);
c. PBS (Gibco Catalog No. 450-1300EB);
d. TBSW Buffer (50 mM Tris (pH 7.2), 150 mM NaCl and 0.1% Tween-20);
e. Ethanolamine stock (10% ethanolamine (pH 7.0), stored at 4° C.);
f. HNTG buffer (20 mM HEPES buffer (pH 7.5), 150 mM NaCl, 0.2% Triton X-100, and 10% glycerol);
g. EDTA (0.5 M (pH 7.0) as a 100× stock);
h. Sodium orthovanadate (0.5 M as a 100× stock);
i. Sodium pyrophosphate (0.2 M as a 100× stock);
j. NUNC 96 well V bottom polypropylene plates (Applied Scientific Catalog No. AS-72092);
k. NIH3T3 C7#3 Cells (FLK-1 expressing cells);
l. DMEM with 1× high glucose L-Glutamine (catalog No. 11965-050);
n. L-glutamine, Gibco (catalog no. 25030-016);
o. VEGF, PeproTech, Inc. (catalog no. 100-20)(kept as 1 μg/100 μl stock in Milli-Q dH2O and stored at −20° C.;
p. Affinity purified anti-FLK-1 antiserum;
q. UB40 monoclonal antibody specific for phosphotyrosine (see, Fendley, et al., 1990, Cancer Research 50:1550-1558);
r. EIA grade Goat anti-mouse IgG-POD (BioRad catalog no. 172-1011);
s. 2,2-azino-bis(3-ethylbenz-thiazoline-6-sulfonic acid (ABTS) solution (100 mM citric acid (anhydrous), 250 mM Na2HPO4 (pH 4.0), 0.5 mg/ml ABTS (Sigma catalog no. A-1888)), solution should be stored in dark at 4° C. until ready for use;
t. H2O2 (30% solution) (Fisher catalog no. H325);
u. ABTS/ H2O2 (15 ml ABTS solution, 2 μl H2O2) prepared 5 minutes before use and left at room temperature;
v. 0.2 M HCl stock in H2O;
w. dimethylsulfoxide (100%) (Sigma Catalog No. D-8418); and
y. Trypsin-EDTA (Gibco BRL Catalog No. 25200-049).
1. Coat Corning 96-well ELISA plates with 1.0 μg per well Cappel Anti-rabbit IgG antibody in 0.1M Na2CO3 pH 9.6. Bring final volume to 150 μl per well. Coat plates overnight at 4° C. Plates can be kept up to two weeks when stored at 4° C.
2. Grow cells in Growth media (DMEM, supplemented with 2.0 mM L-Glutamine, 10% FBS) in suitable culture dishes until confluent at 37° C., 5% CO2.
3. Harvest cells by trypsinization and seed in Corning 25850 polystyrene 96-well round bottom cell plates, 25,000 cells/well in 200 μl of growth media.
4. Grow cells at least one day at 37° C., 5% CO2.
5. Wash cells with D-PBS 1×.
6. Add 200 μl/well of starvation media (DMEM, 2.0 mM 1-Glutamine, 0.1% FBS). Incubate overnight at 37° C., 5% CO2.
7. Dilute Compounds 1:20 in polypropylene 96 well plates using starvation media. Dilute dimethylsulfoxide 1:20 for use in control wells.
8. Remove starvation media from 96 well cell culture plates and add 162 μl of fresh starvation media to each well.
9. Add 18 μl of 1:20 diluted compound dilution (from step 7) to each well plus the 1:20 dimethylsulfoxide dilution to the control wells (+/− VEGF), for a final dilution of 1:200 after cell stimulation. Final dimethylsulfoxide is 0.5%. Incubate the plate at 37° C., 5% CO2 for two hours.
10. […]

PDGF-R = PDGF-R Assay (cellular ELISA, U1242 cells); assay type: cell-based; parameters: concentration or dose not given beside the values
Procedure: as §1
All cell culture media, glutamine, and fetal bovine serum can be purchased from Gibco Life Technologies (Grand Island, N.Y.) unless otherwise specified. All cells are grown in a humid atmosphere of 90-95% air and 5-10% CO2 at 37° C. All cell lines are routinely subcultured twice a week and are negative for mycoplasma as determined by the Mycotect method (Gibco).
For ELISA assays, cells (U1242, obtained from Joseph Schlessinger, NYU) are grown to 80-90% confluency in growth medium (MEM with 10% FBS, NEAA, 1 mM NaPyr and 2 mM GLN) and seeded in 96-well tissue culture plates in 0.5% serum at 25,000 to 30,000 cells per well. After overnight incubation in 0.5% serum-containing medium, cells are changed to serum-free medium and treated with test compound for 2 hr in a 5% CO2, 37° C. incubator. Cells are then stimulated with ligand for 5-10 minute followed by lysis with HNTG (20 mM Hepes, 150 mM NaCl, 10% glycerol, 5 mM EDTA, 5 mM Na3VO4, 0.2% Triton X-100, and 2 mM NaPyr). Cell lysates (0.5 mg/well in PBS) are transferred to ELISA plates previously coated with receptor-specific antibody and which had been blocked with 5% milk in TBST (50 mM Tris-HCl pH 7.2, 150 mM NaCl and 0.1% Triton X-100) at room temperature for 30 min. Lysates are incubated with shaking for 1 hour at room temperature. The plates are washed with TBST four times and then incubated with polyclonal anti-phosphotyrosine antibody at room temperature for 30 minutes. Excess anti-phosphotyrosine antibody is removed by rinsing the plate with TBST four times. Goat anti-rabbit IgG antibody is added to the ELISA plate for 30 min at room temperature followed by rinsing with TBST four more times. ABTS (100 mM citric acid, 250 mM Na2HPO4 and 0.5 mg/mL 2,2′-azino-bis (3-ethylbenzthiazoline-6-sulfonic acid)) plus H2O2 ([…] 30% H2O2 to 10 ml ABTS) is added to the ELISA plates to start color development. Absorbance at 410 nm with a reference wavelength of 630 nm is recorded about 15 to 30 min after ABTS addition.

Structure (SMILES)	Flk Kinase % Inhibition (P.110) (FLK-1 receptor)	PDGF Kinase % Inhibition (P.119) (PDGF-R)
CSc1ccc(C=C2C(=O)Nc3c(Br)cc(Br)c(C)c32)cc1 [10729/H04]	1.1%	−5.6%
Cc1ccsc1C=C1C(=O)Nc2c(Br)cc(Br)c(C)c21 [10729/H05]	22.4%	−27.6%
Cc1c(Br)cc(Br)c2c1C(=Cc1cccc(Oc3ccccc3)c1)C(=O)N2 [10729/H06]	11.0%	−12.1%
Cc1c(Br)cc(Br)c2c1C(=Cc1ccccn1)C(=O)N2 [10729/H07]	9.9%	−43.1%
Cc1c(Br)cc(Br)c2c1C(=Cc1cccnc1)C(=O)N2 [10729/H08]	8.2%	−1.5%
Cc1c(Br)cc(Br)c2c1C(=Cc1ccncc1)C(=O)N2 [10729/H09]	−2.7%	0.1%
Cc1c(Br)cc(Br)c2c1C(=Cc1ccc(N3CCCC3)cc1)C(=O)N2 [10729/H10]	5.3%	−1.5%
Cc1c(Br)cc(Br)c2c1C(=CC1C=CCCC1)C(=O)N2 (stereo not drawn) [10729/H11]	8.9%	5.0%
COc1ccc(C=C2C(=O)Nc3c(Br)cc(Br)c(C)c32)c(OC)c1OC [10730/H02]	21.2%	1.0%
COc1cc(OC)c(OC)cc1C=C1C(=O)Nc2c(Br)cc(Br)c(C)c21 [10730/H03]	11.5%	−11.7%
COc1cc(C=C2C(=O)Nc3c(Br)cc(Br)c(C)c32)cc(OC)c1OC [10730/H04]	12.1%	−1.2%
CC(=O)n1cc(C=C2C(=O)Nc3c(Br)cc(Br)c(C)c32)c2ccccc21 [10730/H05]	11.7%	22.1%
Cc1c(Br)cc(Br)c2c1C(=Cc1ccc(-c3ccccc3Cl)o1)C(=O)N2 [10730/H07]	19.0%	0.6%
Cc1c(Br)cc(Br)c2c1C(=Cc1cc3ccccc3nc1Cl)C(=O)N2 [10730/H08]	9.2%	6.3%
COC1CC(C=C2C(=O)Nc3c(Br)cc(Br)c(C)c32)C(OC)O1 (stereo not drawn) [10730/H10]	18.3%	23.0%
Cc1cc(C=C2C(=O)Nc3c(Br)cc(Br)c(C)c32)oc1C [10730/H11]	13.9%	9.4%
CCn1c2ccccc2c2cc(C=C3C(=O)Nc4c(Br)cc(Br)c(C)c43)ccc21 [10731/H02]	19.7%	−18.7%
Cc1cc2occ(C=C3C(=O)Nc4c(Br)cc(Br)c(C)c43)c(=O)c2cc1C [10731/H03]	20.0%	1.8%
C=C(C)C1CC=C(C=C2C(=O)Nc3c(Br)cc(Br)c(C)c32)CC1 (stereo not drawn) [10731/H04]	16.4%	−15.8%
Cc1c(Br)cc(Br)c2c1C(=Cc1coc3ccc(C(C)C)cc3c1=O)C(=O)N2 [10731/H05]	23.6%	−1.6%
Cc1ccc2occ(C=C3C(=O)Nc4c(Br)cc(Br)c(C)c43)c(=O)c2c1 [10731/H06]	28.7%	−5.4%
Cc1c(Br)cc(Br)c2c1C(=Cc1coc3ccc([N+](=O)[O-])cc3c1=O)C(=O)N2 [10731/H07]	74.5%	36.5%
Cc1c(Br)cc(Br)c2c1C(=Cc1c[nH]c(=O)[nH]c1=O)C(=O)N2 [10731/H08]	31.4%	−10.1%
COc1ccc2[nH]cc(C=C3C(=O)Nc4c(Br)cc(Br)c(C)c43)c2c1 [10731/H09]	15.8%	−5.4%
